US20080275018A1, “ANTIBACTERIAL AMIDE-MACROCYCLES V” (AiCuris GmbH & Co. KG, priority 2005, published 2008)
Where a name gives a salt, the structure may show the parent alone.

Experiments:
[1] = target: S. aureus 133 Translation; test: S. aureus in vitro transcription-translation assay (firefly luciferase, S30 extract); assay type: biochemical; conditions: 50% inhibition of the translation of firefly luciferase
Excerpt: For the construction of a reporter plasmid which can be used in an in vitro transcription-translation assay from S. aureus the plasmid pBESTluc (Promega Corporation, USA) is used. The E. coli tac promoter present in this plasmid in front of the firefly luciferase is replaced by the capA1 promoter with corresponding Shine-Dalgarno sequence from S. aureus. The primers CAPFor 5′-[…]-[…] GCCA-3′ and CAPRev 5′-[…]-3′ are used for this. The primer CAPFor contains the capA1 promoter, the ribosome binding site and the 5′ region of the luciferase gene. After PCR using pBESTluc as template it is possible to isolate a PCR product which contains the firefly luciferase gene with the fused capA1 promoter. This is, after restriction with ClaI and HindIII, ligated into the vector pBESTluc which has likewise been digested with ClaI and HindIII. The resulting plasmid pla can be replicated in E. coli and be used as template in the S. aureus in vitro transcription-translation test.
Six litres of BHI medium are inoculated with a 250 ml overnight culture of an S. aureus Strain and allowed to grow at 37° C. until the OD600 nm is 2-4. The cells are harvested by centrifugation and washed in 500 ml of cold buffer A (10 mM Tris acetate, pH 8.0, 14 mM magnesium acetate, 1 mM DTT, 1 M KCl). After renewed centrifugation, the cells are washed in 250 ml of cold buffer A with 50 mM KCl, and the resulting pellets are frozen at −20° C. for 60 min. The pellets are thawed on ice in 30 to 60 min and taken up to a total volume of 99 ml in buffer B (10 mM Tris acetate, pH 8.0, 20 mM magnesium acetate, 1 mM DTT, 50 mM KCl). 1.5 ml portions of lysostaphin (0.8 mg/ml) in buffer B are provided in 3 precooled centrifuge cups and each mixed with 33 ml of the cell suspension. The samples are incubated at 37° C., shaking occasionally, for 45 to 60 min, before 150 μl of a 0.5 M DTT solution are added. The lysed cells are centrifuged at 30 000×g and 4° C. for 30 min. The cell pellet is taken up in buffer B and then centrifuged again under the same conditions, and the collected supernatants are combined. The supernatants are centrifuged again under the same conditions, and 0.25 volumes of buffer C (670 mM Tris acetate, pH 8.0, 20 mM magnesium acetate, 7 mM Na3 phosphoenolpyruvate, 7 mM DTT, 5.5 mM ATP, 70 μM amino acids (complete from Promega), 75 μg of pyruvate kinase (Sigma, Germany)/ml are added to the upper ⅔ of the supernatant. The samples are incubated at 37° C. for 30 min. The supernatants are dialysed against 2 l of dialysis buffer (10 mM Tris acetate, pH 8.0, 14 mM magnesium acetate, 1 mM DTT, 60 mM potassium acetate) in a dialysis tube with a 3500 Da cut-off with one buffer change at 4° C. overnight. The dialysate is concentrated to a protein concentration of about 10 mg/ml by
covering the dialysis tube with cold PEG 8000 powder (Sigma, Germany) at 4° C. The S30 extracts can be stored in aliquots at −70° C.
The inhibition of protein biosynthesis of the compounds can be shown in an in vitro transcription-translation assay. The assay is based on the cell-free transcription and translation of firefly luciferase using the reporter plasmid pla as template and cell-free S30 extracts obtained from S. aureus. The activity of the resulting luciferase can be detected by luminescence measurement.
The amount of S30 extract or plasmid pla to be employed must be tested anew for each preparation in order to ensure an optimal concentration in the test. […] of the substance to be tested, dissolved in 5% DMSO, are introduced into an MTP. Then […] of a suitably concentrated plasmid solution pla are added. […]

S. aureus T17 = test: Minimum inhibitory concentration (MIC), biphenomycin-resistant S. aureus T17; assay type: cell-based, Staphylococcus aureus; conditions: Staphylococcus aureus; biphenomycin-resistant S. aureus T17
Description: (§1) The minimum inhibitory concentration (MIC) is the minimum concentration of an antibiotic with which the growth of a test microbe is inhibited over 18-24 h. The inhibitor concentration can in these cases be determined by standard microbiological methods (see, for example, The National Committee for Clinical Laboratory Standards. Methods for dilution antimicrobial susceptibility tests for bacteria that grow aerobically; approved standard-fifth edition. NCCLS document M7-A5 [ISBN 1-56238-394-9]. NCCLS, 940 West Valley Road, Suite 1400, Wayne, Pa. 19087-1898 USA, 2000). The test substances are thereby initially provided in 1:2 dilution series into 96-well round-bottom microtiter plates (Greiner) double-concentrated in 50 μl of test medium. The aerobically growing test microbes (e.g. staphylococci and enterococci), which are incubated overnight on Columbia blood agar plates (Becton-Dickinson), are, after resuspension in 0.9% NaCl, adjusted to a microbe count of about 5×10^7 microbes/ml and then diluted 1:150 in cation-adjusted MH medium (test medium). 50 μL of this suspension are pipetted onto the test preparations provided in the microtiter plates. The cultures are incubated at 37° C. for 18-24 hours. For microaerophilically growing microbes (e.g. streptococci), 2% lysed horse blood in the final concentration is added to the medium and the cultures are incubated in the presence of 5% CO2. The lowest substance concentration in each case at which no visible bacterial growth occurs any longer is defined as the MIC and is reported in μg/ml.
(§2) The minimum inhibitory concentration (MIC) is the minimum concentration of an antibiotic with which the growth of a test microbe is inhibited over 18-24 h. The inhibitor concentration can in these cases be determined by standard microbiological methods (see, for example, The National Committee for Clinical Laboratory Standards. Methods for dilution antimicrobial susceptibility tests for bacteria that grow aerobically; approved standard-fifth edition. NCCLS document M7-A5 [ISBN 1-56238-394-9]. NCCLS, 940 West Valley Road, Suite 1400, Wayne, Pa. 19087-1898 USA, 2000). The MIC of the compounds of the invention is determined in the liquid dilution test on the 96-well microtiter plate scale. The bacterial microbes are cultivated in a minimal medium (18.5 mM Na2HPO4, 5.7 mM KH2PO4, 9.3 mM NH4Cl, 2.8 mM MgSO4, 17.1 mM NaCl, 0.033 μg/ml thiamine hydrochloride, 1.2 μg/ml nicotinic acid, 0.003 μg/ml biotin, 1% glucose, 25 μg/ml of each proteinogenic amino acid with the exception of phenylalanine; [H.-P. Kroll; unpublished]) with the addition of 0.4% BH broth (test medium). In the case of Enterococcus faecium L4001, heat-inactivated fetal calf serum (FCS; GibcoBRL, Germany) is added to the test medium in a final concentration of 10%. Overnight cultures of the test microbes are diluted to an OD578 of 0.001 (to 0.01 in the case of enterococci) in fresh test medium, and incubated 1:1 with dilutions of the test substances (1:2 dilution steps) in test medium ([…]). The cultures are incubated at 37° C. for 18-24 hours; enterococci in the presence of 5% CO2.
(§3) The lowest substance concentration in each case at which no visible bacterial growth occurs any longer is defined as the MIC.
(§4) The minimum inhibitory concentration (MIC) is the minimum concentration of an antibiotic with which the growth of a test microbe is inhibited over 18-24 h. The inhibitor concentration can in these cases be determined by standard microbiological methods with modified medium in an agar dilution test (see, for example, The National Committee for Clinical Laboratory Standards. Methods for dilution antimicrobial susceptibility tests for bacteria that grow aerobically; approved standard-fifth edition. NCCLS document M7-A5 [ISBN 1-56238-394-9]. NCCLS, 940 West Valley Road, Suite 1400, Wayne, Pa. 19087-1898 USA, 2000). The bacterial microbes are cultivated on 1.5% agar plates which contain 20% defibrinated horse blood. […]

S. aureus 133 [2] = test: Systemic infection with S. aureus 133 (mouse sepsis model); assay type: in vivo, mouse (female CFW1); conditions: i.p. infection with S. aureus 133, i.v. therapy 30 minutes after infection, survival recorded for 6 days
Description: For this purpose, S. aureus 133 cells are cultured overnight in BH broth (Oxoid, Germany). The overnight culture was diluted 1:100 in fresh BH broth and expanded for 3 hours. The bacteria which are in the logarithmic phase of growth are centrifuged and washed twice with a buffered physiological saline solution. A cell suspension in saline solution with an extinction of 50 units is then adjusted in a photometer (Dr Lange LP 2W). After a dilution step (1:15), this suspension is mixed 1:1 with a 10% mucine suspension. 0.2 ml of this infection solution is administered i.p. per 20 g of mouse. This corresponds to a cell count of about 1-2×10^6 microbes/mouse. The i.v. therapy takes place 30 minutes after the infection. Female CFW1 mice are used for the infection experiment. The survival of the animals is recorded for 6 days. The animal model is adjusted so that untreated animals die within 24 h after the infection.

E. faecium L4001 = test: Minimum inhibitory concentration (MIC), E. faecium L4001; assay type: cell-based, Enterococcus faecium; conditions: Enterococcus faecium, L4001, read-out: MIC E. faecium L4001
Description: as §2, §3

S. aureus 133 [3] = test: Minimum inhibitory concentration (MIC), S. aureus 133; assay type: cell-based, Staphylococcus aureus; conditions: Staphylococcus aureus, 133, read-out: MIC S. aureus 133
Description: as §1, §2, §3, §4

NCCC[C@H](N)CNC(=O)CNC(=O)[C@@H]1Cc2cccc(c2)-c2ccc(O)c(c2)C[C@H](N)C(=O)N[C@@H](C[C@@H](O)CN)C(=O)N1 [Example 2, (8S,11S,14S)-14-Amino-11-[(2R)-3-amino-2-hydroxypropyl]-N-(2-{[(2S)-2,5-diaminopentyl]-amino}-2-oxoethyl)-17-hydroxy-10,13-dioxo-9,12-diazatricyclo[14.3.1.1^2,6]henicosa-1(20),2(21),3,5,16,18-hexaene-8-carboxamide tetrahydrochloride]
IC50 [1]: 70 nM | MIC (S. aureus T17): 1 µg/mL | therapeutic effect ED100 (S. aureus 133 [2]): 1.25 mg/kg | MIC (E. faecium L4001): 2 µg/mL | MIC (S. aureus 133 [3]): 1 µg/mL
